Data reported in ChEMBL document CHEMBL1156466, “NHE1 inhibition by amiloride- and benzoylguanidine-type compounds. Inhibitor binding loci deduced from chimeras of NHE1 homologues with endogenous differences in inhibitor sensitivity” (J Biol Chem, 2007).
Active and inactive are the calls of the source. The calls are words filed in the database; no cut-off is given here.

Experiments:
[1] = (§1) Inhibition of Pleuronectes americanus NHE1 TM4 mutant containing VFFLF sequence of human expressed in chinese hamster AP1 cells assessed as intracellular pHi recovery by ammonium chloride prepulse protocol; assay type: cell-based
[2] = biological target: Sodium/hydrogen exchanger 1 (Homo sapiens, UniProt P19634); experiment: Inhibition of human wild type NHE1 expressed in chinese hamster AP1 cells assessed as intracellular pHi recovery by ammonium chloride prepulse protocol; assay type: cell-based
Sodium/hydrogen exchanger 1, sequence (P19634 whole entry, the tested form may be a part): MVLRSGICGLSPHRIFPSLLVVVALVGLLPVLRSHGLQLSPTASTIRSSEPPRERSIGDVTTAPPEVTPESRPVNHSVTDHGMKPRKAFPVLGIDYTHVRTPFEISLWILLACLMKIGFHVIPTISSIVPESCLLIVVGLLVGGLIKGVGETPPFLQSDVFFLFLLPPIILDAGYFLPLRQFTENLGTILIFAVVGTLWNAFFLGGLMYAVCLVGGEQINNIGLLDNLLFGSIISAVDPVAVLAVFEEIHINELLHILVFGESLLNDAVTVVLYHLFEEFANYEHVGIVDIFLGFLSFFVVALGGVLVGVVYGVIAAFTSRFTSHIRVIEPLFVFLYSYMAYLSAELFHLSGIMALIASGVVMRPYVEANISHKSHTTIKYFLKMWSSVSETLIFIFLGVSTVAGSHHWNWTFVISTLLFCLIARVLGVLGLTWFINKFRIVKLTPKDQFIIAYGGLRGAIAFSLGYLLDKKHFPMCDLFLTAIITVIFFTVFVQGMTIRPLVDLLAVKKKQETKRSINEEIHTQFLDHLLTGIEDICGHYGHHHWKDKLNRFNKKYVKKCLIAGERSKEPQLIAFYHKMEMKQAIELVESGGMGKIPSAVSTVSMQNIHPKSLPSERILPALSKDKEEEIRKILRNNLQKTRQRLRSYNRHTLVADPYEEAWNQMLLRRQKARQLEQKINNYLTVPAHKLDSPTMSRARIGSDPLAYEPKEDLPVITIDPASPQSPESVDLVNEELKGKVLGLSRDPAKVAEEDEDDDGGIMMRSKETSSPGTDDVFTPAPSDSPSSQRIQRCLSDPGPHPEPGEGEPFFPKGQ

[3] = (§2) Inhibition of Amphiuma tridactylum NHE1 mutant containing TM10-12 domain of Pleuronectes americanus expressed in chinese hamster AP1 cells assessed as intracellular pHi recovery by ammonium chloride prepulse protocol; assay type: cell-based
[4] = biological target: Sodium/hydrogen exchanger (Amphiuma tridactylum) (UniProt Q9W6Q1); experiment: Inhibition of osmotic cell shrinkage-induced NHE1 activity in Amphiuma tridactylum RBC
Sodium/hydrogen exchanger (Amphiuma tridactylum), sequence (Q9W6Q1 as listed by the source): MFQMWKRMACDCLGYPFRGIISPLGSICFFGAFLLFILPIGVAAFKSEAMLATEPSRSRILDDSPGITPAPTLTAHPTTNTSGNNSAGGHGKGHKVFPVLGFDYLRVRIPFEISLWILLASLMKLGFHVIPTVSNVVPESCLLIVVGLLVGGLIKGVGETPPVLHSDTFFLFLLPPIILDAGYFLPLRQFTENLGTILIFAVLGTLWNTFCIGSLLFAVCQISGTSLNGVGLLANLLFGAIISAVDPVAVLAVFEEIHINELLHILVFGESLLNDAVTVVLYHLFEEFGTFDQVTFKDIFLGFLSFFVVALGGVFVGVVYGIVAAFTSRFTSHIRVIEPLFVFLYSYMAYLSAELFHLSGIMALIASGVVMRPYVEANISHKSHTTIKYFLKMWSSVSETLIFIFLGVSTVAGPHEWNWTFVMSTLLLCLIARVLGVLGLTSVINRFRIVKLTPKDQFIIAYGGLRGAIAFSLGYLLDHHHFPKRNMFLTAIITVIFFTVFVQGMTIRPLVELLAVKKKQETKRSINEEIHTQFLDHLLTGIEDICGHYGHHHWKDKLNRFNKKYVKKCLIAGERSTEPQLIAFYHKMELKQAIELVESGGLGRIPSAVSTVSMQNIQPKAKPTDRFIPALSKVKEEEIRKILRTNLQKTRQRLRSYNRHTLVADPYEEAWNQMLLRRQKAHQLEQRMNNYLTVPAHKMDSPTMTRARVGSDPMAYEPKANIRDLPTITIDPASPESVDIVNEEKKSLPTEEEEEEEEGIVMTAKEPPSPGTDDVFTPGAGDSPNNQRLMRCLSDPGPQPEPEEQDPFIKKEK

[5] = (§3) Inhibition of Pleuronectes americanus NHE1 mutant containing TM10-12 domain of Amphiuma tridactylum expressed in chinese hamster AP1 cells assessed as intracellular pHi recovery by ammonium chloride prepulse protocol; assay type: cell-based
[6] = (§4) Inhibition of Pleuronectes americanus NHE1 C-terminal mutant containing TM10 domain of Amphiuma tridactylum expressed in chinese hamster AP1 cells assessed as intracellular pHi recovery by ammonium chloride prepulse protocol; assay type: cell-based
[7] = biological target: Sodium/hydrogen exchanger (Amphiuma tridactylum, UniProt Q9W6Q1); experiment: (§5) Inhibition of Amphiuma tridactylum wild type NHE1 expressed in chinese hamster AP1 cells assessed as intracellular pHi recovery by ammonium chloride prepulse protocol; assay type: cell-based
Sodium/hydrogen exchanger, sequence (Q9W6Q1 whole entry): as the sequence (Q9W6Q1 as listed by the source) above

[8] = biological target: T1, Sodium/hydrogen exchanger (Pseudopleuronectes americanus) (UniProt Q804I7); experiment: Inhibition of osmotic cell shrinkage-induced NHE1 activity in Pleuronectes americanus RBC upto 100 uM
T1 sequence (whole entry): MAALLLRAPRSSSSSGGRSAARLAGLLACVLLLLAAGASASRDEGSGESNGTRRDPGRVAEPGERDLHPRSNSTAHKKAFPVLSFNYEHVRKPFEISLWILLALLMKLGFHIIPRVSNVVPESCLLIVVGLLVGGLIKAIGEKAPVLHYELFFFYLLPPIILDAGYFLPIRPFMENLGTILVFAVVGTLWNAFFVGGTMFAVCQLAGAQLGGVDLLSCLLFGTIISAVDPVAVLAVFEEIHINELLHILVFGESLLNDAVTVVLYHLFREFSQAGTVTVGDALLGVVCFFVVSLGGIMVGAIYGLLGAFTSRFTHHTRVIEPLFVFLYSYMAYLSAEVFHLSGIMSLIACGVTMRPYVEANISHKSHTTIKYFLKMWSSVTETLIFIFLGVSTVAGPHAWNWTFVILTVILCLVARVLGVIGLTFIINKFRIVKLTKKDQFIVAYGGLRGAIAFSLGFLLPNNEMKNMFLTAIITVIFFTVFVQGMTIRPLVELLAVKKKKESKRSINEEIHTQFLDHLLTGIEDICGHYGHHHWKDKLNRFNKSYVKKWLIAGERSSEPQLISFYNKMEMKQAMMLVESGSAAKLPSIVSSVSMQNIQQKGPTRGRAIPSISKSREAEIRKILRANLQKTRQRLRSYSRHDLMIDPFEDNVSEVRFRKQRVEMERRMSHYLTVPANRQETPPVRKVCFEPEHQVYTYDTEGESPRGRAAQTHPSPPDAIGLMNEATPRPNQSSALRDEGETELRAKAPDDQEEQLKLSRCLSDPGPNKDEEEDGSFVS

[9] = test system: AP1; experiment: as §1; assay type: cell-based
[10] = test system: AP1; experiment: Inhibition of Pleuronectes americanus NHE1 TM4 mutant containing TFFLF sequence of Amphiuma tridactylum expressed in chinese hamster AP1 cells assessed as intracellular pHi recovery by ammonium chloride prepulse protocol; assay type: cell-based
[11] = biological target: Sodium/hydrogen exchanger (Amphiuma tridactylum) (UniProt Q9W6Q1); experiment: Inhibition of osmotic cell shrinkage-induced NHE1 activity in Amphiuma tridactylum RBC at 100 uM
[12] = test system: AP1; experiment: as §2; assay type: cell-based
[13] = biological target: T1, Sodium/hydrogen exchanger (Pseudopleuronectes americanus); experiment: Inhibition of osmotic cell shrinkage-induced NHE1 activity in Pleuronectes americanus RBC at 20 uM
[14] = test system: AP1; experiment: as §3; assay type: cell-based
[15] = test system: AP1; experiment: as §4; assay type: cell-based
[16] = biological target: Sodium/hydrogen exchanger (Amphiuma tridactylum) (UniProt Q9W6Q1); experiment: as §5; assay type: cell-based
[17] = biological target: T1, Sodium/hydrogen exchanger (Pseudopleuronectes americanus); experiment: Inhibition of Pleuronectes americanus wild type NHE1 expressed in chinese hamster AP1 cells assessed as intracellular pHi recovery by ammonium chloride prepulse protocol; assay type: cell-based
[18] = test system: AP1; experiment: Inhibition of Pleuronectes americanus NHE1 C-terminal mutant with replacement of residues C-terminal to 489 position with corresponding residues of Amphiuma tridactylum expressed in chinese hamster AP1 cells assessed as intracellular pHi recovery by ammonium chloride prepulse protocol; assay type: cell-based
[19] = test system: AP1; experiment: Inhibition of Pleuronectes americanus NHE1 C-terminal mutant containing TM7 domain of Amphiuma tridactylum expressed in chinese hamster AP1 cells assessed as intracellular pHi recovery by ammonium chloride prepulse protocol; assay type: cell-based
[20] = biological target: T1, Sodium/hydrogen exchanger (Pseudopleuronectes americanus); experiment: Inhibition of osmotic cell shrinkage-induced NHE1 activity in Pleuronectes americanus RBC at 1 mM

Structure (SMILES) | IC50 [1] [µM] | IC50 [3] [µM] | IC50 [5] [µM] | IC50 [6] [µM] | IC50 [7] [µM] | Activity [9] | Activity [2] | Activity [10] | Activity [12] | Activity [14] | Activity [15] | Activity [16] | Activity [17] | also measured
CCN(c1nc(N)c(C(=O)NC(=N)N)nc1Cl)C(C)C [5-(N-ETHYL-N-ISOPROPYL)AMILORIDE] | 0.92 | 5.8 | 11 | 37 | 8.7 |  |  |  |  |  |  |  |  | IC50 [2]: 0.8 µM; Activity [4]: Active; Activity [8]: inactive
CS(=O)(=O)c1cc(C(=O)N=C(N)N)ccc1N1CCCCC1 |  |  |  |  |  | Active | Active | Active | Active | inactive | inactive | inactive | inactive | Activity [11]: inactive; Activity [13]: inactive
CC(C)c1ccc(C(=O)N=C(N)N)cc1S(C)(=O)=O |  |  |  |  |  | Active | Active | Active | Active | inactive | inactive | inactive | inactive | 
N=C(N)NC(=O)c1nc(Cl)c(N)nc1N [AMILORIDE] | 118 | 38 | 137 | 491 | 98 |  |  | Active |  |  |  |  |  | Activity [18]: inactive; Activity [19]: Active; Activity [20]: inactive
